Our source for the TGI values is PubChem BioAssay (NCI).

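Grown in 96-well plates, cells were treated for 48 hours with each compound at five concentrations. Insufficient inhibition: endpoint recorded as highest concentration tested. TGI denotes the concentration required for complete inhibition of growth.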

What all share (experiment): inhibition of tumour cell growth, NCI panel, 48 h
Assay [1] concerns SF-295 CNS.
The test system of assay [2] is NCI/ADR-RES ovarian.
The subject of assay [3] is MDA-MB-435.
In assay [4] the test system is HCT-15 colon.
The test system of assay [5] is SK-MEL-2 melanoma.
Assay [6] deals with SW-620 colon.
In assay [7] the test system is UACC-257 melanoma.
In assay [8] the test system is PC-3 prostate.
For assay [9], the system named is OVCAR-4 ovarian.
The subject of assay [10] is MALME-3M melanoma.
Assay [11] relates to HCT-116 colon.
In assay [12] the test system is COLO 205 colon.
The subject of assay [13] is UO-31 renal.
The test system of assay [14] is K-562 leukemia.
Assay [15] has as its system MCF7 breast.
In assay [16] the test system is BT-549 breast.
Assay [17] has as its system MOLT-4 leukemia.
The test system of assay [18] is 786-0 renal.
The test system of assay [19] is NCI-H226 lung.
Assay [20] concerns HOP-62 NSCLC.

Regarding `COc1cccc(O)c1-c1cc(=O)c2c(O)c(OC)c(OC)c(OC)c2o1`, the TGI in [1] was 76.6 µM; in assay [2] it was 71.7 µM; in [3], 55.4 µM; in [4] it was greater than 100 µM; in [5], 52.4 µM; in assay [6], greater than 100 µM. Also, the TGI is 80.5 µM in assay [7]; 66.7 µM in [8]; greater than 100 µM in [9]; greater than 100 µM in [10]; greater than 100 µM in assay [11]; 39.1 µM in [12]. For the same molecule, the TGI was greater than 100 µM in assay [13]; greater than 100 µM in assay [14]; 77.7 µM in assay [15]; 73.6 µM in assay [16]; 97.7 µM in [17]; greater than 100 µM in [18]. The results for the TGI in assay [19] and in assay [20] were greater than 100 µM and 44.4 µM, respectively.

As to `CC(C)CCNC(=O)c1ccc(CNC(=O)/C=C/c2ccc3c(c2)-c2ccccc2C3)cc1`, the TGI in assay [1], in assay [2], in assay [3], in assay [4], in assay [5] and in [6] was greater than 100 µM each time. For the same molecule, the TGI in assay [7] was greater than 100 µM; in assay [8], greater than 100 µM; in assay [9], 80.1 µM; in assay [10], 45.8 µM; in assay [11], greater than 100 µM; in [12] it was greater than 100 µM. The TGI is greater than 100 µM in assay [13]; greater than 100 µM in [14]; greater than 100 µM in assay [15]; greater than 100 µM in assay [16]; greater than 100 µM in [17]; 81.1 µM in [18]. Besides, the TGI in assay [19] was greater than 100 µM; in [20], 44.8 µM.

For `Cc1c(CNc2ccc(Cl)c(Cl)c2Cl)cnc2nc(N)nc(N)c12`, the TGI is 3.16 µM in [1]; greater than 100 µM in [2]; greater than 48.1 µM in assay [3]; greater than 100 µM in [4]; greater than 90 µM in assay [5]; greater than 70.1 µM in assay [6]. Moreover, the TGI in [7] was greater than 55.4 µM; in [8], greater than 49 µM; in assay [9], 31.1 µM; in assay [10], greater than 100 µM; in assay [11], 1.55 µM; in assay [12], 33.8 µM. The TGI is greater than 100 µM in assay [13]; 5.14 µM in assay [14]; greater than 46.7 µM in [15]; 50.8 µM in [16]; 17.6 µM in assay [17]; greater than 50 µM in assay [18]. Further, the TGI in assay [19] is greater than 100 µM; in assay [20], greater than 43.5 µM.

As to `CC(=O)C1=C(C)N2C(=NC3=C(CCc4ccccc43)C2c2ccc(Cl)cc2)S1` (stereo not given), the TGI in assay [1], in assay [2], in [3], in [4], in assay [5] and in [6] was greater than 100 µM in each case. Further, the TGI in [7], in assay [8], in assay [9], in [10], in [11] and in assay [12] was greater than 100 µM each time. Moreover, the TGI in assay [13] was greater than 100 µM; in assay [14], greater than 56.2 µM; in assay [15] it was greater than 100 µM; in assay [16] it was greater than 100 µM; in assay [17] it was 55.3 µM; in assay [18], greater than 100 µM. Also, the TGI in [19] and in assay [20] was greater than 100 µM in each case.

With `CC(=O)O[C@H]1CC[C@@]2(C)C(=CC[C@@H]3[C@@H]2CC[C@]2(C)C(=O)/C(=C\c4ccccc4)C[C@@H]32)C1`, the TGI in assay [1], in assay [2], in assay [3], in assay [4], in assay [5] and in [6] was greater than 100 µM throughout. In addition, the TGI in [7], in assay [8], in assay [9], in assay [10], in [11] and in [12] was greater than 100 µM in each case. Moreover, the TGI in [13], in assay [14], in assay [15], in assay [16], in [17] and in assay [18] was greater than 100 µM each time. In addition, the TGI in [19] and in [20] was greater than 100 µM each time.

For the molecule `CC(C)C1CC(CO)(CNc2nc(N)nc(Cl)c2C=O)C1` (stereo not given), the TGI in assay [1] was 44.4 µM; in assay [2], 23.8 µM; in assay [3], 4.58 µM; in [4] it was 32.1 µM; in [5] it was 3.31 µM; in assay [6], 21.8 µM. Also, the TGI in [7] stood at 6.06 µM; in assay [8], 5.16 µM; in assay [9], 10.9 µM; in assay [10] it was 44.3 µM; in [11], 7.23 µM; in assay [12], 28 µM. Moreover, the TGI in assay [13] is 13 µM; in assay [14], 6.15 µM; in assay [15], greater than 100 µM; in assay [16], 52.2 µM; in assay [17], 5.08 µM; in [18], greater than 100 µM. In addition, the TGI amounted to 26.3 µM in assay [19] and 37 µM in assay [20].

Turning to `Cn1c2ccccc2n2c3ccccc3c3nnc(N)c-3c12`, the TGI was greater than 100 µM in assay [1]; greater than 100 µM in assay [2]; greater than 100 µM in assay [3]; greater than 100 µM in assay [4]; greater than 79.5 µM in assay [5]; greater than 100 µM in assay [6]. The TGI was greater than 100 µM in assay [7]; greater than 100 µM in [8]; greater than 100 µM in assay [9]; 32.3 µM in [10]; greater than 100 µM in assay [11]; greater than 100 µM in assay [12]. For the same molecule, the TGI is greater than 100 µM in [13]; greater than 100 µM in [14]; greater than 74.7 µM in assay [15]; 13.8 µM in [16]; greater than 100 µM in assay [17]; 49.8 µM in assay [18]. Further, the TGI in assay [19] was greater than 100 µM; in [20], greater than 86.5 µM.
